# Measurements taken from ChEMBL document CHEMBL1201862, “PubChem BioAssay data set” (2004).
# The source made the active and inactive calls. Rule as the data show it, for most assays here: actives have a measured IC50 and inactives only a lower limit.
# Assays:
# [1] = target: Alkaline phosphatase, placental type (Homo sapiens, UniProt P05187); experiment: PLAP enzyme inhibitors, confirmation, biochemical, luminescence (AID 1512); type: functional
# [2] = target: T1, Alkaline phosphatase, tissue-nonspecific isozyme (Homo sapiens, UniProt P05186); experiment: human TNAP enzyme inhibitors, SAR follow-up, biochemical, luminescent, dose response (AID 1056)
# T1 sequence (P05186 whole entry): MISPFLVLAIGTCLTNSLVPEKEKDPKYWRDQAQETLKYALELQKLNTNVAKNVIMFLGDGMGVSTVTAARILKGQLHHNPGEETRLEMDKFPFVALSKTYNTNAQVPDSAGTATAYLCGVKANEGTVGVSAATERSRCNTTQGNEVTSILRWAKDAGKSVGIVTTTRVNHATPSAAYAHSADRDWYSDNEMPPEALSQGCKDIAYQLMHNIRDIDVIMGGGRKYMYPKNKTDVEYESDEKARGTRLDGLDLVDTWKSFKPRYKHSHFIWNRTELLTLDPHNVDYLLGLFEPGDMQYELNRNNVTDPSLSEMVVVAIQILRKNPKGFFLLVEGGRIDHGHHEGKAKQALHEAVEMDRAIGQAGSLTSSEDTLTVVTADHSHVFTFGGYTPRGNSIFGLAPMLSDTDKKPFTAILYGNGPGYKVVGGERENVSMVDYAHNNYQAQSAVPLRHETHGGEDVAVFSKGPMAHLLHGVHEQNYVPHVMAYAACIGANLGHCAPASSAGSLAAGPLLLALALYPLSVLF
# [3] = target: T2, SUMO-activating enzyme (Homo sapiens, UniProt Q9UBT2); experiment: SUMOylation inhibitor hit validation, confirmation, SUMOylation inhibitor project, biochemical, AlphaScreen (AID 2018); type: functional
# [4] = target: T3, Carboxy-terminal domain RNA polymerase II polypeptide A small phosphatase 1 (Homo sapiens, UniProt Q9GZU7); experiment: inhibitors of CTDSP1, concentration-response testing, biochemical assay, absorbance-based, actives from ultra-high-throughput screening (AID 540297); type: functional
# T3 sequence (Q9GZU7 whole entry): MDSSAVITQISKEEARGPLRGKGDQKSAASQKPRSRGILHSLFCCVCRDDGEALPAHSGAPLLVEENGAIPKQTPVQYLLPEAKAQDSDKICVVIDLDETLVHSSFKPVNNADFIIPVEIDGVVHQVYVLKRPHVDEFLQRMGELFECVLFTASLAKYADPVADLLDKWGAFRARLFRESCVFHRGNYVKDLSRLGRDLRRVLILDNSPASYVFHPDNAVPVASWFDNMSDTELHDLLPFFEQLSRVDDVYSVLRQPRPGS
# [5] = target: T2, SUMO-activating enzyme; experiment: inhibitors of in vitro SUMOylation cascade, primary screen, biochemical, HTRF, uHTS (AID 2006); type: protein-complex assay
# [6] = target: SUMO E1/E2 (Homo sapiens, UniProt P63279+Q9UBE0+Q9UBT2); experiment: SAR analysis of SUMOylation using HTRF in an in-Vitro dose response assay. [Related pubchem assays (depositor defined):AID2006, AID2011, AID2018, AID2069, AID2658]; type: functional
# [7] = target: T4, Tyrosine-protein phosphatase non-receptor type 22 (Homo sapiens, UniProt Q9Y2R2); type: functional
# T4 sequence (Q9Y2R2 whole entry): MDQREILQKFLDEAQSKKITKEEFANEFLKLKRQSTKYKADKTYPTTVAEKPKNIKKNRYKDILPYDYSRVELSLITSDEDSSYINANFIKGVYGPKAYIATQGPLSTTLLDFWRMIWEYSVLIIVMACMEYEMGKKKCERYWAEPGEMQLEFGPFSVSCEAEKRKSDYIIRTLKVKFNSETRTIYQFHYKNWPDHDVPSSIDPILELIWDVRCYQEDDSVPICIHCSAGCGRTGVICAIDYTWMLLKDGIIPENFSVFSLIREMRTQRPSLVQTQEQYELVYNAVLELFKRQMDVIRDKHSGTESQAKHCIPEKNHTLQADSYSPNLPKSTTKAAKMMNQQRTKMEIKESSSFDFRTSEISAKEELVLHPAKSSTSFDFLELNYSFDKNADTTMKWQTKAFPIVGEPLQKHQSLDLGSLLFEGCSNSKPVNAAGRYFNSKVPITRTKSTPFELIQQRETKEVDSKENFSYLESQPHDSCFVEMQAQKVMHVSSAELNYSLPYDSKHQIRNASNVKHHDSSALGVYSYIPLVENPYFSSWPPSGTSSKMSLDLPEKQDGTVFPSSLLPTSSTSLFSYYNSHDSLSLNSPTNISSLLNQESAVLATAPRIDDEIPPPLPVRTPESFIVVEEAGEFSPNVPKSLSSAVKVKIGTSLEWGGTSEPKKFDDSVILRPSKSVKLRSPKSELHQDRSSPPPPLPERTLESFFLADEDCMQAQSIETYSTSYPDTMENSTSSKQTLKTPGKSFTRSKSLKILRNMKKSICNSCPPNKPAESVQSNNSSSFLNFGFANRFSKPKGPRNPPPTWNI
# [8] = target: T4, Tyrosine-protein phosphatase non-receptor type 22; type: functional; remark: listed apart in the source
# [9] = target: T5, Tyrosine-protein phosphatase non-receptor type 7 (Homo sapiens, UniProt P35236); type: functional
# T5 sequence (P35236 whole entry): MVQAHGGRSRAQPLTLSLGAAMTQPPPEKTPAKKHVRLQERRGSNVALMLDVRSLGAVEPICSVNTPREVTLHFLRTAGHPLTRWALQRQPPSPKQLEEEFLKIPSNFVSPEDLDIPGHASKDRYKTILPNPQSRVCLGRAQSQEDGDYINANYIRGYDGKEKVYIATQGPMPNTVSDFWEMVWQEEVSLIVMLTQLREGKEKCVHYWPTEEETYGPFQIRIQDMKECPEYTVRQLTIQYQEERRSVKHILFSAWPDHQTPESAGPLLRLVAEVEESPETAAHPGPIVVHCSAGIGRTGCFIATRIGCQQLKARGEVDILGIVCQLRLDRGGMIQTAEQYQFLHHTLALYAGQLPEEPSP
# [10] = target: Lysine-specific demethylase 4C (Homo sapiens, UniProt Q9H3R0); experiment: GASC-1 (JMJD2C) histone demethylase inhibitors, dose response, biochemical, DELFIA europium, cherry-picked samples (AID 488835); type: functional
# [11] = system: HEK293; experiment: NOD1 signaling inhibitors, primary screen, cell-based, luminescence, uHTS (AID 1578); type: functional; conditions: Homo sapiens
# [12] = system: HEK293; experiment: cells; type: functional, cell-based; conditions: Homo sapiens
# [13] = Shn3 3'UTR reporter inhibitors, dose response, cell-based, Clone20 osteoblasts, firefly luciferase, cherry-picked (AID 624132); type: functional;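 also: firefly luciferase luminescence from reporter carrying the Shn3 3'UTR in osteoblasts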
# [14] = control 3'UTR Renilla luciferase suppression, dose response, counter-screen for Shn3 inhibitor project, cell-based, Clone20-Shn3RL, cherry-picked (AID 624133); type: functional
# [15] = target: T6, Nucleotide-binding oligomerization domain-containing protein 1 (Homo sapiens, UniProt Q9Y239); experiment: NOD1 signaling inhibitors, SAR follow-up, revised (AID 2333); type: functional
# T6 sequence (Q9Y239 whole entry): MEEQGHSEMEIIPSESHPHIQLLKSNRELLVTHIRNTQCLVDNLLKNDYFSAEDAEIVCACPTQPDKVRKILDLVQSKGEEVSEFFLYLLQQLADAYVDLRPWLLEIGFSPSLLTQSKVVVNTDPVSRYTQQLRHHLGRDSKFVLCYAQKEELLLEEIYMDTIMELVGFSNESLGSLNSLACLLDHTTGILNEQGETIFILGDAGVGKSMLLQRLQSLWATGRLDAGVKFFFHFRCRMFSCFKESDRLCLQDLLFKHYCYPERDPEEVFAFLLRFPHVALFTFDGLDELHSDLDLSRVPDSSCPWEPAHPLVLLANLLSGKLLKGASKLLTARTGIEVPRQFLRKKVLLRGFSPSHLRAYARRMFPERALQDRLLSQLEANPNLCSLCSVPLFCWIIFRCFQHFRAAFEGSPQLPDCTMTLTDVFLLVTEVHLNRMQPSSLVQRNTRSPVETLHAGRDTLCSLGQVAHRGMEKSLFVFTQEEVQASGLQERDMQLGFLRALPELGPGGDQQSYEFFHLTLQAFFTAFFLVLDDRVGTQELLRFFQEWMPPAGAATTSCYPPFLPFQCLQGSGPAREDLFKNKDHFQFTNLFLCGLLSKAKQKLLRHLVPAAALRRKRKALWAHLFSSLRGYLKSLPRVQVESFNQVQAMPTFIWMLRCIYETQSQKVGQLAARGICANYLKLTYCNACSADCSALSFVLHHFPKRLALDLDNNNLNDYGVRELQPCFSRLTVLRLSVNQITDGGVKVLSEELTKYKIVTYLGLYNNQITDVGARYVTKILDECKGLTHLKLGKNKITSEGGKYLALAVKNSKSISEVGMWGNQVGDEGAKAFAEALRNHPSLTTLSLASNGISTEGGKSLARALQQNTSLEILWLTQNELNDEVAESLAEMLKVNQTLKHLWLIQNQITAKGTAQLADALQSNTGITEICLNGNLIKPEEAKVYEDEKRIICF
# [16] = system: HEK293; experiment: NOD2 signaling inhibitors in MDP-stimulated cells, cell-based, uHTS, luminescence (AID 2001); type: functional; conditions: Homo sapiens
# [17] = HepG2 cell cytotoxicity, dose response, cytotoxicity control for Shn3 inhibitor project, CellTiter-Glo, cherry-picked (AID 624134); type: functional, cell-based
# [18] = target: Nucleotide-binding oligomerization domain-containing protein 2 (Homo sapiens, UniProt Q9HC29); experiment: NOD2 signaling inhibitors, cell-based, luminescence, uHTS, HEK293 (AID 1566); type: functional
# [19] = system: HEK293; experiment: cells; type: functional, cell-based; conditions: Homo sapiens; remark: listed apart in the source
# [20] = system: HEK293; experiment: cells; type: functional, cell-based; conditions: Homo sapiens; remark: listed apart in the source
# [21] = target: T7, Zinc finger protein mex-5 (Caenorhabditis elegans, UniProt Q9XUB2); experiment: MEX-5/TCR-2 RNA interaction inhibitors, dose response, biochemical, C. elegans, fluorescence polarization (AID 1960)
# T7 sequence (Q9XUB2 whole entry): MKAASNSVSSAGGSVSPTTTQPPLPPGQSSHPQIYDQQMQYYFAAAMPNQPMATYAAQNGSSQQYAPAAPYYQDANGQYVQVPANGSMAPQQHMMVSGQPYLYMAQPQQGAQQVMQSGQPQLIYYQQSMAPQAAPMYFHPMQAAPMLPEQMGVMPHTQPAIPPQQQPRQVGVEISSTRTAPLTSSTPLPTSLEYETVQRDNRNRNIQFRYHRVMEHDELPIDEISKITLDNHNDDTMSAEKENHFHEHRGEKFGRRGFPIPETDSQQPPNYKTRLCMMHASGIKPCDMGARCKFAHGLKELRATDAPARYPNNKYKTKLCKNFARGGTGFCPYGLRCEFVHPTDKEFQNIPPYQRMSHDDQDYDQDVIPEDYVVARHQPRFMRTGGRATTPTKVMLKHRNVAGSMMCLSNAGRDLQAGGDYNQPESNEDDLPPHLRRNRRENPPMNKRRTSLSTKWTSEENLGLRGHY
# [22] = target: T8, RNA-binding protein pos-1 (Caenorhabditis elegans, UniProt G5EF15); experiment: inhibitors of POS-1/mex-3 RNA binding, dose response, biochemical, fluorescence polarization (AID 1964);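 also: purified POS-1 fused to maltose binding protein made in E. coli; potency of compounds blocking POS-1 binding to fluorescent RNA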
# T8 sequence (G5EF15 whole entry): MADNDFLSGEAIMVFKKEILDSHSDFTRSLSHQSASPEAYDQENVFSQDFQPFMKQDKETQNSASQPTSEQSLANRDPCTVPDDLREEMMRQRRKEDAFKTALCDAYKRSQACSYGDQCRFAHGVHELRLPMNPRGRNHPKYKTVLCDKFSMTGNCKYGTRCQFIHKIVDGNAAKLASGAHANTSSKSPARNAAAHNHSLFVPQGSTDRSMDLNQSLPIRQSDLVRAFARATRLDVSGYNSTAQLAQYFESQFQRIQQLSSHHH
# Chain of Lysine-specific demethylase 4C (Q9H3R0 whole entry): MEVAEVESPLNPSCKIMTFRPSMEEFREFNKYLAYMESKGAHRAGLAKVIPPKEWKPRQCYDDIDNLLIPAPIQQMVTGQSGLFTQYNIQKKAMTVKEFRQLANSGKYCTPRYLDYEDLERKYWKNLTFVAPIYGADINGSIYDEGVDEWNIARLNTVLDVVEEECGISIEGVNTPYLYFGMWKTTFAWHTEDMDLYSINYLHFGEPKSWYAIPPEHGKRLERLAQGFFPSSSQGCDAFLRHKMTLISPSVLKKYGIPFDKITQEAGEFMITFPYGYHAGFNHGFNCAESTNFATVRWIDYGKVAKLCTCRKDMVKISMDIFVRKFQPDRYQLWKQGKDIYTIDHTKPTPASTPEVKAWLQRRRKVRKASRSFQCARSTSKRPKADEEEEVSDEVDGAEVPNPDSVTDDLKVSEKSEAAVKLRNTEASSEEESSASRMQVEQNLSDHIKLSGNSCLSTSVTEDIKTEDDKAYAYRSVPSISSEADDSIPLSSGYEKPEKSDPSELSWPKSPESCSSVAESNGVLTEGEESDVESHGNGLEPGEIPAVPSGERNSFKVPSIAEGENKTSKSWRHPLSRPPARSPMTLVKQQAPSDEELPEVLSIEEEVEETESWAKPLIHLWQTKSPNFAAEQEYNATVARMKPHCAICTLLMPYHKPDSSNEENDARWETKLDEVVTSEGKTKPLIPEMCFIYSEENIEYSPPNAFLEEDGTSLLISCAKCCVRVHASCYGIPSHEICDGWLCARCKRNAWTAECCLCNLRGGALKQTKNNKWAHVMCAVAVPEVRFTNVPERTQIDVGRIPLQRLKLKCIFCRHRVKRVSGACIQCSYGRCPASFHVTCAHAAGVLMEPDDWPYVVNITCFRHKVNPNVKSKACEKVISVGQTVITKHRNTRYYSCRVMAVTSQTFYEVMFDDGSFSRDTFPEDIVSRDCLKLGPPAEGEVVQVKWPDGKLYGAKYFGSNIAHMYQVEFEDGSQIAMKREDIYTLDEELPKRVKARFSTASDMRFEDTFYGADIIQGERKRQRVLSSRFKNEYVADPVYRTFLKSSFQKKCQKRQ
# T2 sequence (Q9UBE0 whole entry, the tested form may be a part): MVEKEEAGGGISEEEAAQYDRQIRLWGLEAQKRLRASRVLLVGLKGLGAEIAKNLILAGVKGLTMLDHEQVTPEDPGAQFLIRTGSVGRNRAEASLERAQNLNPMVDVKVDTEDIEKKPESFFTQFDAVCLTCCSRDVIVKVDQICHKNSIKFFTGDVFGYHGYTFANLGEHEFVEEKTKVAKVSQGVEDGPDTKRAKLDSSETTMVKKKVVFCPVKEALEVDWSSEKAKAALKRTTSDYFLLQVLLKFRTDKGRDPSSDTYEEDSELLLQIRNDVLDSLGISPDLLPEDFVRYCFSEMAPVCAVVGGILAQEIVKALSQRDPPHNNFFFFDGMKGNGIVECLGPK
# T2 sequence (Q9UBT2 whole entry, the tested form may be a part): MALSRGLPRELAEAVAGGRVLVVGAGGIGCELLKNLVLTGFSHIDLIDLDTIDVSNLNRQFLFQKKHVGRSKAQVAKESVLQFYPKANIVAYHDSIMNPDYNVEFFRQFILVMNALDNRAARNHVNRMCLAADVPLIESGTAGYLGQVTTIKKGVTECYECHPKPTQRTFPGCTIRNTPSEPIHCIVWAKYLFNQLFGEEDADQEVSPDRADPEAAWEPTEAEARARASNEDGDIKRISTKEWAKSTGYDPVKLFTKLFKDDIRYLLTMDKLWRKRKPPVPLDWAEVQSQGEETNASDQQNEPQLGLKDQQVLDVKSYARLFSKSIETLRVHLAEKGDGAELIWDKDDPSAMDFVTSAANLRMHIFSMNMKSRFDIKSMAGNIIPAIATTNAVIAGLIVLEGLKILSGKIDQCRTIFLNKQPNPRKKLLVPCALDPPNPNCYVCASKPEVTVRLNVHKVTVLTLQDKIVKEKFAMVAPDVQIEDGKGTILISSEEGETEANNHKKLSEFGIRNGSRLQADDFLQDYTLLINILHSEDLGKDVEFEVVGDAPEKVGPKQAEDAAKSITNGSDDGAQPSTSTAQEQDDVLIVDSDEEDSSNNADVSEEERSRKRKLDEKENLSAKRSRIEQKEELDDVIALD
# Chain of Alkaline phosphatase, placental type (P05187 whole entry): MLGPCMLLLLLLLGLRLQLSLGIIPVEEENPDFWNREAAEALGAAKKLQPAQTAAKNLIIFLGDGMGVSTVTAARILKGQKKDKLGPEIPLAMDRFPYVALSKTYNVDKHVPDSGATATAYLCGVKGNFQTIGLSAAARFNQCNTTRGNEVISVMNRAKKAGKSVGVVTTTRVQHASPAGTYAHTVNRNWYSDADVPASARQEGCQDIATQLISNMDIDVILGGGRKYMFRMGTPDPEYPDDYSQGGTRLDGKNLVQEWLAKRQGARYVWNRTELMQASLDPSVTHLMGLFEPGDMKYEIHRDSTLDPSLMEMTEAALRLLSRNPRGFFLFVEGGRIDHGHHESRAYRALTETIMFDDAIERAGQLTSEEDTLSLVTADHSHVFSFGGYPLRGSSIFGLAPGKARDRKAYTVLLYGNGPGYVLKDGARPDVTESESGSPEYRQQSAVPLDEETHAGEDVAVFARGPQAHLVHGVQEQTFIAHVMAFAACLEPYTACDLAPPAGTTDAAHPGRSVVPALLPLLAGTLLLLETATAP
# Chain of Nucleotide-binding oligomerization domain-containing protein 2 (Q9HC29 whole entry, the tested form may be a part): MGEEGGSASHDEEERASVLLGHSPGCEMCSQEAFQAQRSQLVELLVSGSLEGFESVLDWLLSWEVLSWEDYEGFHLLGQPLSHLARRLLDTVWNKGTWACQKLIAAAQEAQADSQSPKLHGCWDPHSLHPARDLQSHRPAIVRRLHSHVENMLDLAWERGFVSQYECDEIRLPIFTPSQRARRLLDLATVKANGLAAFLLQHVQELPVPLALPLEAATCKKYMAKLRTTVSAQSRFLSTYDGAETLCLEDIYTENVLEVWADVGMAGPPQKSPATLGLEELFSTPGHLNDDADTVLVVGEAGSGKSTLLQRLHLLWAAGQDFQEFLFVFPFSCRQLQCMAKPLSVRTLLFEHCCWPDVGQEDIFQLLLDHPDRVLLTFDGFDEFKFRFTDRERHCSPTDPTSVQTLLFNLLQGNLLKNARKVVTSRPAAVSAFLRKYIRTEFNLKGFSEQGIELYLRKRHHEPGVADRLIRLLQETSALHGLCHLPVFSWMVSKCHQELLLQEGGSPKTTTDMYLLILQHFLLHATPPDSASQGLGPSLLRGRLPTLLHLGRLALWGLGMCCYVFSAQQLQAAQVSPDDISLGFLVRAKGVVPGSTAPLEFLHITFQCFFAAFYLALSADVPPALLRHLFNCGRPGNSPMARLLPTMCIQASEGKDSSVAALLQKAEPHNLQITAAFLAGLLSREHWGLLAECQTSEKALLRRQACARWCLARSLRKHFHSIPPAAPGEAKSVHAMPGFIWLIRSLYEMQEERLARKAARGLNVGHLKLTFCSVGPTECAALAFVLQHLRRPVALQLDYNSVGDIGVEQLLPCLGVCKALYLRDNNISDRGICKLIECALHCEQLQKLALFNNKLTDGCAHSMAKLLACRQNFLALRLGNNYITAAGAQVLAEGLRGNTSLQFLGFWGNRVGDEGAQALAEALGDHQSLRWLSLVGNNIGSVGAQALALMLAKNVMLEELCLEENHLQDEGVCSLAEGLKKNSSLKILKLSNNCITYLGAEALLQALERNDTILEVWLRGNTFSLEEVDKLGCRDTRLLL
# Chain of SUMO E1/E2 (Q9UBE0 whole entry): as the sequence (Q9UBE0 whole entry, the tested form may be a part) above
# Chain of SUMO E1/E2 (Q9UBT2 whole entry): as the sequence (Q9UBT2 whole entry, the tested form may be a part) above
# Chain of SUMO E1/E2 (P63279 whole entry): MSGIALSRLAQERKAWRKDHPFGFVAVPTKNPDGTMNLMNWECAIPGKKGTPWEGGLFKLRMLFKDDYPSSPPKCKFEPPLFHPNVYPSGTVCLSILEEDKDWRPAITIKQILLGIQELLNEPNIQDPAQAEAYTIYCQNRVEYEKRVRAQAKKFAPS
compound,measurement,setting,value
COc1ccc(-c2cc(C(=O)NCCc3ccc(O)c(O)c3)c3ccccc3n2)cc1,IC50,[1],> 100 µM (inactive)
same,IC50,[2],> 100 µM (inactive)
Cc1ccccc1NC(=O)Cn1c(O)c(N=NC(=O)c2ccccc2O)c2ccccc21,IC50,[3],8.06 µM (active)
same,IC50,[4],1.23 µM (active)
same,IC50,[5],9.83 µM (active)
same,IC50,[6],49.7 µM (active)
COc1ccc(Cl)cc1-c1nc(N)nc(NC2CCCCC2)n1,IC50,[7],> 79.4 µM (inactive)
same,IC50,[8],> 79.4 µM (inactive)
same,IC50,[9],> 79.4 µM (inactive)
COc1cc(CC2C(=O)N(C)C(=O)N(C)C2=O)ccc1OCc1ccccc1,AC50,[10],7.97 µM (active)
CC1=C(C(=O)NC2CCCc3c2cnn3-c2cccc(C)c2C)OCCO1 (stereo not given),EC50,[11],5.36 µM (active)
same,IC50,[12],> 20 µM (inactive)
same,AC50,[13],3.49 µM (active)
same,AC50,[14],3.14 µM (active)
same,IC50,[15],4.06 µM (active)
same,IC50,[16],11.6 µM (inactive)
same,AC50,[17],34.1 µM (active)
same,EC50,[18],> 20 µM (inactive)
CCOc1ccc(-n2c(SCC(=O)c3ccc(O)c(O)c3)nnc2-c2ccc(OC)cc2)cc1,IC50,[1],> 100 µM (inactive)
same,IC50,[2],> 100 µM (inactive)
CN(C)S(=O)(=O)N1CCC(Oc2cccc(C(=O)NC3CCCCC3)c2)CC1,EC50,[11],6.77 µM (active)
same,IC50,[19],11.3 µM (active)
same,IC50,[20],18.8 µM (active)
same,IC50,[16],17.5 µM (inactive)
COCCn1c(=N)c(S(=O)(=O)c2ccc(Br)cc2)cc2c(=O)n3ccccc3nc21,EC50,[21],4.16 µM (active)
same,EC50,[22],> 300 µM (inconclusive)
same,IC50,[7],> 79.4 µM (inactive)
same,IC50,[8],> 79.4 µM (inactive)
same,IC50,[9],> 79.4 µM (inactive)
O=c1cc(N2CCc3ccccc32)[nH]c(=O)n1-c1ccccc1,AC50,[10],20.7 µM (active)
